{"source": "the supplement of paper PMC10307832", "assay_in_all_cases": "relative viability (nuclei count vs DMSO), 5 days (fraction); higher = more cells survive", "key": {"ChaGo-K-1": {"test_system": "ChaGo-K-1", "procedure,_shortened": "(§1)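 Relative viability was taken as the ratio of nuclei in treated wells to nuclei in vehicle wells. Lung cancer cell lines in 1536-well plates received compounds by pin tool one day after seeding, either one drug alone or a fixed anchor-drug dose plus five library-drug doses (not always all listed) in √10 steps. Nuclei were counted on 4× images after 5 days of treatment, and values are medians of duplicate plates.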"}, "EKVX": {"test_system": "EKVX", "procedure,_shortened": "as §1"}, "EMC-BAC-2": {"test_system": "EMC-BAC-2", "procedure,_shortened": "as §1"}, "EPLC-272H": {"test_system": "EPLC-272H", "procedure,_shortened": "as §1"}, "HCC-78": {"test_system": "HCC-78", "procedure,_shortened": "as §1"}, "HCC-827": {"test_system": "HCC-827", "procedure,_shortened": "as §1"}, "LCLC-103H": {"test_system": "LCLC-103H", "procedure,_shortened": "as §1"}, "LK-2": {"test_system": "LK-2", "procedure,_shortened": "as §1"}, "LU99A": {"test_system": "LU99A", "procedure,_shortened": "as §1"}, "NCI-H1563": {"test_system": "NCI-H1563", "procedure,_shortened": "as §1"}, "NCI-H1666": {"test_system": "NCI-H1666", "procedure,_shortened": "as §1"}}, "data": [{"compound": "Nc1ccn([C@@H]2O[C@H](CO)[C@@H](O)[C@@H]2O)c(=O)n1", "note": "[Cytarabine] + Nc1nc2[nH]cc(CCc3ccc(C(=O)N[C@@H](CCC(=O)O)C(=O)O)cc3)c2c(=O)[nH]1 [Pemetrexed] (partner 0.2 µM)", "values": [{"measurement": "relative viability", "setting": "ChaGo-K-1; first compound 0.005 µM", "result": 0.264}, {"measurement": "relative viability", "setting": "ChaGo-K-1; first compound 0.01581 µM", "result": 0.249}, {"measurement": "relative viability", "setting": "ChaGo-K-1; first compound 0.05 µM", "result": 0.239}, {"measurement": "relative viability", "setting": "ChaGo-K-1; first compound 0.1581 µM", "result": 0.209}, {"measurement": "relative viability", "setting": "ChaGo-K-1; first compound 0.5 µM", "result": 0.192}, {"measurement": "relative viability", "setting": "EKVX; first compound 0.005 µM", "result": 0.473}, {"measurement": "relative viability", "setting": "EKVX; first compound 0.01581 µM", "result": 0.364}, {"measurement": "relative viability", "setting": "EKVX; first compound 0.05 µM", "result": 0.361}, {"measurement": "relative viability", "setting": "EKVX; first compound 0.5 µM", "result": 0.362}, {"measurement": "relative viability", "setting": "EMC-BAC-2; first compound 0.005 µM", "result": 0.476}, {"measurement": "relative viability", "setting": "EMC-BAC-2; first compound 0.01581 µM", "result": 0.446}, {"measurement": "relative viability", "setting": "EMC-BAC-2; first compound 0.05 µM", "result": 0.31}, {"measurement": "relative viability", "setting": "EMC-BAC-2; first compound 0.1581 µM", "result": 0.244}, {"measurement": "relative viability", "setting": "EMC-BAC-2; first compound 0.5 µM", "result": 0.247}, {"measurement": "relative viability", "setting": "EPLC-272H; first compound 0.005 µM", "result": 0.232}, {"measurement": "relative viability", "setting": "EPLC-272H; first compound 0.01581 µM", "result": 0.338}, {"measurement": "relative viability", "setting": "EPLC-272H; first compound 0.05 µM", "result": 0.289}, {"measurement": "relative viability", "setting": "EPLC-272H; first compound 0.1581 µM", "result": 0.27}, {"measurement": "relative viability", "setting": "EPLC-272H; first compound 0.5 µM", "result": 0.222}, {"measurement": "relative viability", "setting": "HCC-78; first compound 0.005 µM", "result": 0.824}, {"measurement": "relative viability", "setting": "HCC-78; first compound 0.01581 µM", "result": 0.918}, {"measurement": "relative viability", "setting": "HCC-78; first compound 0.05 µM", "result": 0.889}, {"measurement": "relative viability", "setting": "HCC-78; first compound 0.1581 µM", "result": 0.936}, {"measurement": "relative viability", "setting": "HCC-78; first compound 0.5 µM", "result": 0.894}, {"measurement": "relative viability", "setting": "HCC-827; first compound 0.005 µM", "result": 0.222}, {"measurement": "relative viability", "setting": "HCC-827; first compound 0.01581 µM", "result": 0.281}, {"measurement": "relative viability", "setting": "HCC-827; first compound 0.05 µM", "result": 0.161}, {"measurement": "relative viability", "setting": "HCC-827; first compound 0.1581 µM", "result": 0.152}, {"measurement": "relative viability", "setting": "HCC-827; first compound 0.5 µM", "result": 0.113}, {"measurement": "relative viability", "setting": "LCLC-103H; first compound 0.005 µM", "result": 0.458}, {"measurement": "relative viability", "setting": "LCLC-103H; first compound 0.01581 µM", "result": 0.467}, {"measurement": "relative viability", "setting": "LCLC-103H; first compound 0.05 µM", "result": 0.497}, {"measurement": "relative viability", "setting": "LCLC-103H; first compound 0.1581 µM", "result": 0.422}, {"measurement": "relative viability", "setting": "LCLC-103H; first compound 0.5 µM", "result": 0.456}, {"measurement": "relative viability", "setting": "LK-2; first compound 0.005 µM", "result": 0.34}, {"measurement": "relative viability", "setting": "LK-2; first compound 0.01581 µM", "result": 0.233}, {"measurement": "relative viability", "setting": "LK-2; first compound 0.05 µM", "result": 0.11}, {"measurement": "relative viability", "setting": "LK-2; first compound 0.1581 µM", "result": 0.091}, {"measurement": "relative viability", "setting": "LK-2; first compound 0.5 µM", "result": 0.0936}, {"measurement": "relative viability", "setting": "LU99A; first compound 0.005 µM", "result": 0.22}, {"measurement": "relative viability", "setting": "LU99A; first compound 0.01581 µM", "result": 0.179}, {"measurement": "relative viability", "setting": "LU99A; first compound 0.05 µM", "result": 0.177}, {"measurement": "relative viability", "setting": "LU99A; first compound 0.1581 µM", "result": 0.195}, {"measurement": "relative viability", "setting": "LU99A; first compound 0.5 µM", "result": 0.163}, {"measurement": "relative viability", "setting": "NCI-H1563; first compound 0.005 µM", "result": 0.823}, {"measurement": "relative viability", "setting": "NCI-H1563; first compound 0.01581 µM", "result": 0.727}, {"measurement": "relative viability", "setting": "NCI-H1563; first compound 0.05 µM", "result": 0.637}, {"measurement": "relative viability", "setting": "NCI-H1563; first compound 0.1581 µM", "result": 0.505}, {"measurement": "relative viability", "setting": "NCI-H1563; first compound 0.5 µM", "result": 0.44}, {"measurement": "relative viability", "setting": "NCI-H1666; first compound 0.005 µM", "result": 0.761}, {"measurement": "relative viability", "setting": "NCI-H1666; first compound 0.01581 µM", "result": 0.718}, {"measurement": "relative viability", "setting": "NCI-H1666; first compound 0.05 µM", "result": 0.754}, {"measurement": "relative viability", "setting": "NCI-H1666; first compound 0.1581 µM", "result": 0.655}, {"measurement": "relative viability", "setting": "NCI-H1666; first compound 0.5 µM", "result": 0.616}]}]}
